Literature values, collected in patent publication US20170112867A1, “PHARMACEUTICAL COMBINATIONS OF […] RIBAVIRIN” (SANOVEL ILAC SANAYI VE TICARET ANONIM SIRKETI, priority 2014, published 2017).

Tests used:
[1] = test system: chronic hepatitis C (CHC) infections; details: ribavirin alone, during or after therapy

Row | Molecule | HCV RNA levels [1] | solubility in anhydrous alcohol (anhydrous alcohol) | solubility in water | metabolism by Cytochromes P450 (CYP) (Cytochromes P450 (CYP)) | solubility (across the pH range of 2-7.7 at 37° C.) [µg/mL]
1 | 1-β-Dribofuranosyl-1H-1,2,4-triazole-3-carboxamide [Ribavirin] | did not reduce HCV RNA levels | slightly soluble | freely soluble | – | –
2 | CC(C)OC(=O)[C@H](C)N[P@](=O)(OC[C@H]1O[C@@H](n2ccc(=O)[nH]c2=O)[C@](C)(F)[C@@H]1O)Oc1ccccc1 [Sofosbuvir, (S)-Isopropyl 2-((S)-(((2R,3R,4R,5R)-5-(2,4-dioxo3,4-dihydropyrimidin-1(2H)-yl)-4-fluoro-3-hydroxy-4-methyltetrahydrofuran-2yl)methoxy)-(phenoxy)phosphorylamino)propanoate] | – | – | slightly soluble | not metabolized | ≥ 2000
